Results reported in ChEMBL document CHEMBL1201862, “PubChem BioAssay data set” (2004).
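Dose response: 5 concentrations. Exposure: 48 h. Format: 96-well plates. Endpoint: linear interpolation; highest concentration if not reached. Abbreviation: GI50, concentration required for 50% inhibition of growth.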 Calls of active or inactive are those of the source. No stated cut-off is given here; in the data, active = GI50 up to about 1.1 µM and inactive = higher.

How the values were obtained:
Experiment in all cases: NCI tumour cell line growth inhibition, 48 h
ACHN = system: ACHN
CAKI-1 = system: CAKI-1
HCT-116 = system: HCT-116
HCT-15 = system: HCT-15
HOP-92 = system: HOP-92
M14 = system: M14
MDA-MB-435 = system: MDA-MB-435
Malme-3M = system: Malme-3M
NCI-H226 = system: NCI-H226
NCI-H460 = system: NCI-H460
NCI-H522 = system: NCI-H522
OVCAR-4 = system: OVCAR-4
RPMI-8226 = system: RPMI-8226
RXF 393 = system: RXF 393
SF-295 = system: SF-295
SF-539 = system: SF-539
SK-MEL-2 = system: SK-MEL-2
SNB-19 = system: SNB-19
U-251 = system: U-251
UO-31 = system: UO-31

SMILES | GI50 (ACHN) | GI50 (CAKI-1) | GI50 (HCT-116) | GI50 (HCT-15) [µM] | GI50 (HOP-92) | GI50 (M14) | GI50 (MDA-MB-435) | GI50 (Malme-3M) | GI50 (NCI-H226) | GI50 (NCI-H460) | GI50 (NCI-H522) | GI50 (OVCAR-4) | GI50 (RPMI-8226) | GI50 (RXF 393) | GI50 (SF-295) | GI50 (SF-539) | GI50 (SK-MEL-2) | GI50 (SNB-19) | GI50 (U-251) | GI50 (UO-31)
CC(=O)OCC1(C)C(O)CCC2(C)C1CCC1CC3CC12CCC3(O)CO (stereo not drawn) | 4.46 µM (inactive) | 17.9 µM (inactive) | 76 µM (inactive) | > 100 | > 81.5 µM (inactive) | > 100 µM (inactive) | > 100 µM (inactive) | > 100 µM (inactive) | > 100 µM (inactive) | 6.75 µM (inactive) | > 26.6 µM (inactive) | > 87.5 µM (inactive) | 47.5 µM (inactive) | > 100 µM (inactive) | 10.8 µM (inactive) | 50.6 µM (inactive) | > 100 µM (inactive) | > 100 µM (inactive) | > 100 µM (inactive) | 25 µM (inactive)
C[N+](C)(C)CCN[N+]1(C)CCCc2ccccc21 (stereo not drawn) | > 100 µM (inactive) | > 100 µM (inactive) | 52 µM (inactive) | > 100 | > 100 µM (inactive) | > 100 µM (inactive) | > 100 µM (inactive) | 23 µM (inactive) | 54.1 µM (inactive) | > 100 µM (inactive) | 18.5 µM (inactive) | > 100 µM (inactive) | 32.8 µM (inactive) | 36 µM (inactive) | > 100 µM (inactive) | 4.92 µM (inactive) | > 100 µM (inactive) | > 100 µM (inactive) | 52.1 µM (inactive) | > 100 µM (inactive)
CCOC(=O)C(C(=O)c1ccccc1C(=O)OC)=P(c1ccccc1)(c1ccccc1)c1ccccc1 | > 10 µM (inactive) | > 10 µM (inactive) | > 10 µM (inactive) | > 10 | > 10 µM (inactive) | > 10 µM (inactive) | > 10 µM (inactive) | > 10 µM (inactive) | > 10 µM (inactive) | > 10 µM (inactive) | > 10 µM (inactive) | > 10 µM (inactive) | > 10 µM (inactive) | > 10 µM (inactive) | > 10 µM (inactive) | > 10 µM (inactive) | > 10 µM (inactive) | > 10 µM (inactive) | > 10 µM (inactive) | > 10 µM (inactive)
CS(=O)(=O)c1ccc(C2=C(c3ccccc3)C(=O)OC2)cc1 [ROFECOXIB] | > 100 µM (inactive) | > 100 µM (inactive) | > 100 µM (inactive) | > 100 | > 100 µM (inactive) | > 100 µM (inactive) | > 100 µM (inactive) | > 100 µM (inactive) | > 100 µM (inactive) | > 100 µM (inactive) | > 100 µM (inactive) | > 100 µM (inactive) | > 100 µM (inactive) | > 100 µM (inactive) | > 100 µM (inactive) | > 100 µM (inactive) | > 100 µM (inactive) | > 100 µM (inactive) | > 100 µM (inactive) | > 100 µM (inactive)
Cc1c(C(=O)c2ccc(N)c3ccccc23)c2ccccc2n1CCN1CCOCC1 | 31.4 µM (inactive) | 7.85 µM (inactive) | 19.5 µM (inactive) | 21 | 21.9 µM (inactive) | 24.5 µM (inactive) | 2.02 µM (inactive) | 18.3 µM (inactive) | 32.1 µM (inactive) | 3.4 µM (inactive) | 6.82 µM (inactive) | 3.1 µM (inactive) | 23.6 µM (inactive) | 24.2 µM (inactive) | 3.15 µM (inactive) | 19.7 µM (inactive) | 18.6 µM (inactive) | 21.5 µM (inactive) | 2.77 µM (inactive) | 25.5 µM (inactive)
COc1ccccc1C(=O)N(Cc1ccccc1)c1ccc(Cl)c(C(=O)OC(C)C)c1 | 25 µM (inactive) | 12.3 µM (inactive) | 13.7 µM (inactive) | 19.8 | 6.67 µM (inactive) | 20.7 µM (inactive) | 27 µM (inactive) | 21.9 µM (inactive) | 13.6 µM (inactive) | 21.4 µM (inactive) | 5.93 µM (inactive) | 15.6 µM (inactive) | 5.69 µM (inactive) | 11.8 µM (inactive) | 14.3 µM (inactive) | 30.6 µM (inactive) | 14.9 µM (inactive) | 24.3 µM (inactive) | 36.6 µM (inactive) | 7.71 µM (inactive)
COC1=C(N=[N+]=[N-])C(=O)c2ncccc2C1=O | 4.28 µM (inactive) | 5.58 µM (inactive) | 2.65 µM (inactive) | 7.83 | 1.29 µM (inactive) | 3.73 µM (inactive) | 2.12 µM (inactive) | 2.33 µM (inactive) | 19.2 µM (inactive) | 15.7 µM (inactive) | 1.9 µM (inactive) | 2.69 µM (inactive) | 1.88 µM (inactive) | 3.75 µM (inactive) | 15.6 µM (inactive) | 16 µM (inactive) | 18.6 µM (inactive) | 17.1 µM (inactive) | 14.6 µM (inactive) | 14.4 µM (inactive)
CCCCCCCC/C=C\CCCCCCC(F)C(=O)O (stereo not drawn) | > 12.5 µM (inactive) | > 12.5 µM (inactive) | > 12.5 µM (inactive) | > 12.5 | > 12.5 µM (inactive) | > 12.5 µM (inactive) | > 12.5 µM (inactive) | > 12.5 µM (inactive) | > 12.5 µM (inactive) | – | > 12.5 µM (inactive) | > 12.5 µM (inactive) | 11.2 µM (inactive) | > 12.5 µM (inactive) | > 12.5 µM (inactive) | > 12.5 µM (inactive) | > 12.5 µM (inactive) | > 12.5 µM (inactive) | > 12.5 µM (inactive) | > 12.5 µM (inactive)
CC(C)(C)/C(=N\Nc1nc2ccccc2[nH]1)c1ccccn1 | 81.3 µM (inactive) | 48.2 µM (inactive) | 22.8 µM (inactive) | 43.1 | 24.9 µM (inactive) | 61 µM (inactive) | > 100 µM (inactive) | 9.18 µM (inactive) | > 100 µM (inactive) | > 100 µM (inactive) | 33.9 µM (inactive) | 53.7 µM (inactive) | 12.9 µM (inactive) | > 100 µM (inactive) | – | > 100 µM (inactive) | > 100 µM (inactive) | > 100 µM (inactive) | > 100 µM (inactive) | 42.9 µM (inactive)
COc1ccc2c(O)c(S(=O)(=O)c3ccc(C)cc3)c(=O)oc2c1OC | > 100 µM (inactive) | > 100 µM (inactive) | > 100 µM (inactive) | > 100 | > 100 µM (inactive) | > 100 µM (inactive) | > 100 µM (inactive) | > 100 µM (inactive) | > 100 µM (inactive) | > 100 µM (inactive) | > 100 µM (inactive) | > 100 µM (inactive) | > 100 µM (inactive) | > 100 µM (inactive) | > 100 µM (inactive) | > 100 µM (inactive) | > 100 µM (inactive) | > 100 µM (inactive) | > 100 µM (inactive) | > 100 µM (inactive)
